# Measurements reported in patent US8163771B2, “11 β-HSD1 modulators” (Exelixis, Inc., priority 2008, dated 2012).
# pIC50: −log10 of the molar value.
# Target: T1, recombinant human 11 β-HSD1 (Homo sapiens, UniProt P28845)
# T1 construct: made in house; host or cells: E. coli
# Assay: 11 β-HSD1 SPA Assay (Scintillation Proximity Assay)
# Format: biochemical
# Description: (§1) Inhibition of 11 βHSD1 by test compounds was assessed in vitro by a Scintillation Proximity Assay (SPA). The assay was carried out in a 384-well assay plate in a total well volume of 26 μl and contained a mixture of tritiated cortisone substrate (40 nM), NADPH cofactor (1 mM), inhibitor in serial dilutions ([…] to 10 μM), and purified E. coli-expressed recombinant human 11 βHSD1 (30-100 nM) in assay buffer (50 mM HEPES, 100 mM KCl, 5 mM NaCl, and 2 mM MgCl2, pH7.4). Following mixing, the plate was incubated for 2 hours at room temperature. Reactions were stopped by addition of 30 μl of protein A YSi SPA beads (10 mg/ml) that had been pre-incubated with glycyrrhetinic acid (1 mM) and a monoclonal cortisol antibody (3 μg/ml). The plate was then incubated overnight at room temperature prior to reading on a Microbeta counter. Percent inhibition of each compound was calculated based on the background and the maximal signals. Wells that contained substrate without compound or enzyme were used as the background signal, while the wells that contained substrate and enzyme without any compound were used as the maximal signal. The calculation of the IC50 values for the inhibitors was performed by Activity Base.
# as §1, with “β-HSD1” for “βHSD1”
# T1 sequence (P28845 whole entry): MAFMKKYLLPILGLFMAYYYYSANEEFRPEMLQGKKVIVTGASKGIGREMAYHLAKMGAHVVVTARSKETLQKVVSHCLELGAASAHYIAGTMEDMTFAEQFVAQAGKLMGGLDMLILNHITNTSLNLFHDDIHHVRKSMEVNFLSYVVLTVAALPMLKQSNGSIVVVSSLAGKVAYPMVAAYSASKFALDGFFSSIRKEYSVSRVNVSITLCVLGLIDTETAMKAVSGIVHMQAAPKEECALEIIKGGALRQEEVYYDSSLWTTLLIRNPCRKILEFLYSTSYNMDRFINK
row,Molecule,pIC50
1,"2-[(2,4-dichlorophenyl)oxy]-N-{8-[5-(1-hydroxy-1-methylethyl)pyridin-2-yl]-8-azabicyclo[3.2.1]oct-3-endo-yl}-2-methylpropanamide [Example 53]",> 5.70
2,"O=C(NC1CC1)c1ccc(N2[C@@H]3CC[C@H]2C[C@@H](NC(=O)C2(c4ccc(Cl)cc4)CC2)C3)nc1 [Example 1, 6-[3-endo-({[1-(4-chlorophenyl)cyclopropyl]carbonyl}amino)-8-azabicyclo[3.2.1]oct-8-yl]-N-cyclopropylpyridine-3-carboxamide]",> 6.70
3,O=C(N[C@H]1C[C@H]2CC[C@@H](C1)N2c1ncccc1C(F)(F)F)C1(c2ccc(Cl)cc2)CC1 [Example 5],> 5.70
4,"O=C(NC1CC1)c1ccc(N2C3CCC2CC(NC(=O)C2(c4ccc(Cl)cc4)CCCC2)C3)nc1 (stereo not shown) [Example 7, 6-[3-({[1-(4-chlorophenyl)cyclopentyl]carbonyl}amino)-8-azabicyclo[3.2.1]oct-8-yl]-N-cyclopropylpyridine-3-carboxamide]",> 6.70
5,"CC(C)NC(=O)c1ccc(N2[C@@H]3CC[C@H]2C[C@@H](NC(=O)C2(c4ccc(Cl)cc4)CC2)C3)nc1 [Example 12, 6-[3-endo-({[1-(4-chlorophenyl)cyclopropyl]carbonyl}amino)-8-azabicyclo[3.2.1]oct-8-yl]-N-(1-methylethyl)pyridine-3-carboxamide]",> 6.70
6,"CC(C)(Oc1ccc(Cl)cc1)C(=O)N[C@H]1C[C@H]2CC[C@@H](C1)N2c1ccc(C(=O)NC2CC2)cn1 [Example 13, 6-[3-endo-({2-[(4-chlorophenyl)oxy]-2-methylpropanoyl}amino)-8-azabicyclo[3.2.1]oct-8-yl]-N-cyclopropylpyridine-3-carboxamide]",> 6.70
7,"CC(C)(Oc1cccc(Cl)c1)C(=O)N[C@H]1C[C@H]2CC[C@@H](C1)N2c1ccc(C(=O)NC2CC2)cn1 [Example 14, 6-[3-endo-({2-[(3-chlorophenyl)oxy]-2-methylpropanoyl}amino)-8-azabicyclo[3.2.1]oct-8-yl]-N-cyclopropylpyridine-3-carboxamide]",> 6.70
8,"CC(C)(Oc1ccccc1)C(=O)N[C@H]1C[C@H]2CC[C@@H](C1)N2c1ccc(C(=O)NC2CC2)cn1 [Example 15, N-cyclopropyl-6-(3-endo-{[2-methyl-2-(phenyloxy)propanoyl]amino}-8-azabicyclo[3.2.1]oct-8-yl)pyridine-3-carboxamide]",> 6.70
9,"O=C(NC1CC1)c1ccc(N2[C@@H]3CC[C@H]2C[C@@H](NC(=O)C2(c4cccc(Cl)c4)CC2)C3)nc1 [Example 16, 6-[3-endo-({[1-(3-chlorophenyl)cyclopropyl]carbonyl}amino)-8-azabicyclo[3.2.1]oct-8-yl]-N-cyclopropylpyridine-3-carboxamide]",> 6.70
10,"O=C(NC1CC1)c1ccc(N2[C@@H]3CC[C@H]2C[C@@H](NC(=O)C2(c4ccccc4Cl)CC2)C3)nc1 [Example 17, 6-[3-endo-({[1-(2-chlorophenyl)cyclopropyl]carbonyl}amino)-8-azabicyclo[3.2.1]oct-8-yl]-N-cyclopropylpyridine-3-carboxamide]",> 6.70
11,"N#Cc1ccnc(N2[C@@H]3CC[C@H]2C[C@@H](NC(=O)C2(c4ccc(Cl)cc4)CC2)C3)c1 [Example 18, 1-(4-chlorophenyl)-N-[8-(4-cyanopyridin-2-yl)-8-azabicyclo[3.2.1]oct-3-endo-yl]cyclopropanecarboxamide]",> 5.70
12,"O=C(O)c1ccc(N2[C@@H]3CC[C@H]2C[C@@H](NC(=O)C2(c4ccc(Cl)cc4)CC2)C3)nc1 [Example 19, 6-[3-endo-({[1-(4-chlorophenyl)cyclopropyl]carbonyl}amino)-8-azabicyclo[3.2.1]oct-8-yl]pyridine-3-carboxylic acid]",> 5.70
13,"CC(C)(C(=O)N[C@H]1C[C@H]2CC[C@@H](C1)N2c1ccc(C(=O)NC2CC2)cn1)c1ccc(Cl)cc1 [Example 20, 6-(3-endo-{[2-(4-chlorophenyl)-2-methylpropanoyl]amino}-8-azabicyclo[3.2.1]oct-8-yl)-N-cyclopropyipyridine-3-carboxamide]",> 6.70
14,"CC(C)(C(=O)N[C@H]1C[C@H]2CC[C@@H](C1)N2c1ccc(C(=O)NC2CC2)cn1)c1ccccc1 [Example 21, N-cyclopropyl-6-{3-endo-[(2-methyl-2-phenylpropanoyl)amino]-8-azabicyclo[3.2.1]oct-8-yl}pyridine-3-carboxamide]",> 6.70
15,"O=C(NCC(F)(F)F)c1ccc(N2[C@@H]3CC[C@H]2C[C@@H](NC(=O)C2(c4ccc(Cl)cc4)CC2)C3)nc1 [Example 22, 6-[3-endo-({[1-(4-chlorophenyl)cyclopropyl]carbonyl}amino)-8-azabicyclo[3.2.1]oct-8-yl]-N-(2,2,2-trifluoroethyl)pyridine-3-carboxamide]",> 6.70
16,"Cc1ccc(C2(C(=O)N[C@H]3C[C@H]4CC[C@@H](C3)N4c3ccc(C(=O)NC4CC4)cn3)CC2)cc1 [Example 23, N-cyclopropyl-6-[3-endo-({[1-(4-methylphenyl)cyclopropyl]carbonyl}amino)-8-azabicyclo[3.2.1]oct-8-yl]pyridine-3-carboxamide]",> 6.70
17,"CC(C)(Oc1ccccc1Cl)C(=O)N[C@H]1C[C@H]2CC[C@@H](C1)N2c1ccc(C(=O)NC2CC2)cn1 [Example 24, 6-[3-endo-({2-[(2-chlorophenyl)oxy]-2-methylpropanoyl}amino)-8-azabicyclo[3.2.1]oct-8-yl]-N-cyclopropylpyridine-3-carboxamide]",> 6.70
18,"CC(C)(C(=O)N[C@H]1C[C@H]2CC[C@@H](C1)N2c1ccc(C(=O)NC2CC2)cn1)c1cccc(Cl)c1 [Example 25, 6-(3-endo-{[2-(3-chlorophenyl)-2-methylpropanoyl]amino}-8-azabicyclo[3.2.1]oct-8-yl)-N-cyclopropylpyridine-3-carboxamide]",> 6.70
19,"CC(C)(C(=O)N[C@H]1C[C@H]2CC[C@@H](C1)N2c1ccc(C(=O)NCC(F)(F)F)cn1)c1ccc(Cl)cc1 [Example 26, 6-(3-endo-{[2-(4-chlorophenyl)-2-methylpropanoyl]amino}-8-azabicyclo[3.2.1]oct-8-yl)-N-(2,2,2-trifluoroethyl)pyridine-3-carboxamide]",> 6.70
20,"CC(C)(Oc1ccc(Cl)cc1)C(=O)N[C@H]1C[C@H]2CC[C@@H](C1)N2c1ccc(C(=O)NCC(F)(F)F)cn1 [Example 27, 6-[3-endo-({2-[(4-chlorophenyl)oxy]-2-methylpropanoyl}amino)-8-azabicyclo[3.2.1]oct-8-yl]-N-(2,2,2-trifluoroethyl)pyridine-3-carboxamide]",> 6.70
21,"O=C(NC1CC1)c1ccc(N2[C@@H]3CC[C@H]2C[C@@H](NC(=O)C2(c4ccc(F)c(F)c4)CC2)C3)nc1 [Example 28, N-cyclopropyl-6-[3-endo-({[1-(3,4-difluorophenyl)cyclopropyl]carbonyl}amino)-8-azabicyclo[3.2.1]oct-8-yl]pyridine-3-carboxamide]",> 6.70
22,"CC(C)(Oc1ccccc1Cl)C(=O)N[C@H]1C[C@H]2CC[C@@H](C1)N2c1ccc(C(=O)NCC(F)(F)F)cn1 [Example 29, 6-[3-endo-({2-[(2-chlorophenyl)oxy]-2-methylpropanoyl}amino)-8-azabicyclo[3.2.1]oct-8-yl]-N-(2,2,2-trifluoroethyl)pyridine-3-carboxamide]",> 6.70
